Experimental data taken from patent US6603062B1, “Method for producing transgenic plants with modified 5-aminolevulinic acid biosynthesis, method for identifying 5-aminolevulinic acid synthesis effectors” (Aventis CropScience GmbH, priority 1997, dated 2003).

Legend:
[1] = test system: transgenic maize lines with the ALAS gene; test: Tolerance of transgenic maize lines with the ALAS (hemA) gene to the GSAAT inhibitor; format: in vivo; conditions: 100 μM; compared with untreated controls on medium without inhibitor
Experimental: To produce transgenic maize plants which contain an expression cassette for Rhodobacter sphaeroides hemA gene, a transformation was carried out as described in EP-A 0 469 273, with the difference that pALAS3f was employed as the DNA to be transferred. 41 independent maize transformants were obtained. Amongst these lines termed M23T1, M25T1 to M25T13 and M27T1 to M27T27, plants were regenerated as described. The presence of the complete hemA gene was detected in all transgenic plants by means of PCR using the oligodeoxynucleotides ALAS1 and ALAS2 (see Example 1) as PCR primers.
(§1) The tolerance of transgenic lines to 3-amino-2,3-dihydrobenzoic acid is determined in comparison with the nontransgenic original line. To this end, five regenerate plants per line whose size and root system visually corresponds to the above-described seedlings after six days germination are transferred to media without 3-amino-2,3-dihydrobenzoic acid (one plant) and with 100 μM 3-amino-2,3-dihydrobenzoic acid (four plants) and grown on.

[2] = test system: untransformed maize line; test: Tolerance threshold of the untransformed maize line to the GSAAT inhibitor; format: in vivo; conditions: for wet weight of nontransgenic plants: six days after medium change, means of 10 plants without root and seed kernel remains
Experimental: First, the tolerance threshold of the untransformed maize line over the GSAAT inhibitor 3-amino-2,3-dihydrobenzoic acid was determined. To this end, the maize seeds were surface-sterilized by washing them under sterile conditions first for 1 minute in 70% ethanol, then for 20 minutes in 5% sodium hypochlorite, 0.1% Tween 20 and subsequently six times briefly in sterile water. The seeds were then placed under sterile conditions on Murashige & Skoog medium (micro- and macronutrients, Sigma GmbH #M5524) containing 90 g/l sucrose and 8 g/l agar and grown for six days at room temperature under daylight fluorescent tubes in a 12-hour-light/12-hour-dark photoperiod until the second leaf emerged. At this stage, the plantlets were transferred to fresh medium with various concentrations of 3-amino-2,3-dihydrobenzoic acid.
After the plants had been grown for a further 10 days, the effect of the inhibitor was recorded. […] Six days after the medium was changed, the following wet weights were found for the nontransgenic plants (in each case means of 10 individual plants without root and remains of the seed kernel):
as §1

[3] = biological target: T1, GSAAT (Hordeum vulgare, UniProt P18492); conditions: background, Beale (1990); cited from earlier work
T1 sequence (P18492 35-469): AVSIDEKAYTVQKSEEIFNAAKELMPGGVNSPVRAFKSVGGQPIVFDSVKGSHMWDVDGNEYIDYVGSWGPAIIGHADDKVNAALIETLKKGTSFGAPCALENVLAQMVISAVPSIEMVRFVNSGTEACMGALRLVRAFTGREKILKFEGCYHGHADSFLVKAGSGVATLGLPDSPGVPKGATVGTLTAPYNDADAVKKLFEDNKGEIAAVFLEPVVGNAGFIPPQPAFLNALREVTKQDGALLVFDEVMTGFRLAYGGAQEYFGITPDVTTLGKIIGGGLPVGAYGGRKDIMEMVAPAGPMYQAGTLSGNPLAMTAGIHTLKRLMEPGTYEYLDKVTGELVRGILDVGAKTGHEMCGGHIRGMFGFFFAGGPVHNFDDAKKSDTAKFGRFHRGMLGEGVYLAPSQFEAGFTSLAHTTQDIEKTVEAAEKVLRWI

[4] = biological target: T2, recombinant Hordeum vulgare GSAAT (Hordeum vulgare, UniProt P18492); test: GSAAT activity test (photometric detection of derivatized 5-aminolevulinic acid); format: biochemical; conditions: pH 6.5, 20° C., read-out: concentration leading to a 50% reduction in GSAAT activity
T2 construct: The mature Hordeum vulgare GSAAT was produced recombinantly in Escherichia coli; made in house; host or cells: Escherichia coli TG1, expression plasmid pATE19 co-transformed with pGroESL
T2 sequence (P18492 35-469): T1 sequence (P18492 35-469)
Experimental: GSAAT activity was detected by a photometric detection of the derivatized reaction product 5-aminolevulinic acid. The activity test was carried out in a 96-well flat-bottom microtiter plate (F form) made of polystyrene.
It was possible to carry out the desired number of individual measurements in parallel in the wells of the microtiter plate. The following information relates in each case to one well of the microtiter plate (MTP).
At a temperature of 20° C., 100 μl of enzyme solution (25 pkat/ml recombinant Hordeum vulgare GSAAT, 250 mM Bis Tris/HCl pH 6.5) and 10 μl of 25% (v/v) dimethyl sulfoxide in water were introduced into the well. […]
Immediately after the enzymatic reaction had started, the mixture was incubated for 30 minutes at 20° C. […] After the incubation had ended, the absorption of the solution was determined immediately at a wavelength of 540 nm with the aid of a microtiter plate photometer.
To determine the enzymatically formed quantity of 5-aminolevulinic acid, the blank value (see below) was first deducted from the absorption of the mixture to be analyzed. The difference between measured value and blank value was used for calculating, with the aid of a calibration series, the concentration of 5-aminolevulinic acid in the reaction mixture at the time immediately prior to addition of the ethyl acetoacetate. […]

[5] = test system: Lemna gibba; test: Lemna test; format: in vivo; conditions: 20 μM in culture solution
Experimental: The phytotoxic action of GSAAT inhibitors was also determined in vivo by treating Lemna cultures.
To this end, Lemna gibba was cultured in sterile culture solution (0.4 g/l KNO3, 0.8 g/l CaCl2*2H2O, 0.366 g/l MgSO4*7H2O, 0.2 g/l KH2PO4, 2 ml/l solution I (2.23 g/l MnSO44H2O, 83 mg/l Kl, 2.5 mg/l CoCl2*6H2O, 0.86 g/l ZnSO4*7H2O, 2.5 mg/l CuSO4*5H2O, 0.62 g/l H3BO3, 25 mg/l Na2MoO4*2H2O) and 2 ml/l solution II(14.92 g/l Na-EDTA, 10.92 g/l FeSO4*7H2O)). In each case 3 plants were placed under sterile conditions into the a 100 ml Erlenmeyer flask which was filled with 50 ml culture solution containing the GSAAT inhibitor in a concentration of 20 μM. The culture flasks were illuminated at 25° C. with two 36 W daylight fluorescence tubes at a distance of 70 cm (24-hour light photoperiod). Growth and phenotype of the Lemna plants were observed over 7 days and compared with the growth and the phenotype of Lemna plants which had been grown in culture solution without inhibitor under otherwise identical conditions. It was characteristic of the phytotoxic effect of a GSAAT inhibitor that the newly-formed tissues were chlorotic. When light intensities were high, it was also possible for the plant tissue to become necrotic. Compounds with a rapid action frequently led to complete destruction of the plants after only one day, while the more slowly acting compounds first led to growth depression.

[6] = 100 μM, after a further 10 days

| SMILES | phenotype of regenerated plants of most transgenic lines [1] | wet weight of nontransgenic plants ([2]; 1 μM in medium) [g] | wet weight of nontransgenic plants ([2]; 5 μM in medium) [g] | wet weight of nontransgenic plants ([2]; 10 μM in medium) [g] | wet weight of nontransgenic plants ([2]; 100 μM in medium) [g] | biomass production [2, 6] | phenotype of newly-formed tissue [2, 6] | phenotype of regenerated plants of the nontransgenic line ([2]; 100 μM, compared with the untreated control) | biomass production ([2]; concentration under 5 μM, after a further 10 days) | effect on GSAAT [3] | IC50 [4] [µM] | plants that had died ([5]; after 72 hours) | phytotoxic effect on Lemna plants ([5]; within 48 hours) |
| --- | --- | --- | --- | --- | --- | --- | --- | --- | --- | --- | --- | --- | --- |
| NC1C=CC=C(C(=O)O)C1 (stereo not shown) [3-amino-2,3-dihydrobenzoic acid] | none of the regenerated plants in the presence of 100 μM 3-amino-2,3-dihydrobenzoic acid shows chloroses or reduced growth | 4.15 | 3.82 | 3.12 | 1.53 | markedly reduced | marked chlorosis | marked chlorosis and reduced biomass production | unaltered within the normal variations | inhibited | – | – | – |
| NNCCCS(=O)(=O)O [compound A, hydrazinopropylsulfonic acid] | – | – | – | – | – | – | – | – | – | – | 6 | over 60% | chloroses and growth depression |
